Values quoted from earlier work as cited in patent US20070275382A1, “Biomarkers for the Efficacy of Somatostatin Analogue Treatment” (priority 2003, published 2007).
Where two headings read alike, the source gives them in different places.

Columns and labels:
[1] = molecular target: hSST-2 (Homo sapiens, UniProt P30874); settings: background statement, cited from earlier work
[2] = molecular target: hSST-3 (Homo sapiens, UniProt P32745); settings: background statement; cited from earlier work
Sequence of hSST-3 (P32745 whole entry): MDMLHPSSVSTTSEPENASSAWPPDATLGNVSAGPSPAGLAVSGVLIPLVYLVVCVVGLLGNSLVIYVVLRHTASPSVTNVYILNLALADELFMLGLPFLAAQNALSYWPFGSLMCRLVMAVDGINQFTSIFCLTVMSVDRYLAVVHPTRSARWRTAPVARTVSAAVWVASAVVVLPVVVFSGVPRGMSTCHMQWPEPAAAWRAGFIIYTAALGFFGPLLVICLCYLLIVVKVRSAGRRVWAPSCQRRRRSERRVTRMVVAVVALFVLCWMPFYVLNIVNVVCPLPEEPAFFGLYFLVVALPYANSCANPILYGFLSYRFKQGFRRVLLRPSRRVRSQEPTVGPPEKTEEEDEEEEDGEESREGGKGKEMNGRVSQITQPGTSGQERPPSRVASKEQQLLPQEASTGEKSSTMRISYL

Sequence of hSST-2 (P30874 whole entry): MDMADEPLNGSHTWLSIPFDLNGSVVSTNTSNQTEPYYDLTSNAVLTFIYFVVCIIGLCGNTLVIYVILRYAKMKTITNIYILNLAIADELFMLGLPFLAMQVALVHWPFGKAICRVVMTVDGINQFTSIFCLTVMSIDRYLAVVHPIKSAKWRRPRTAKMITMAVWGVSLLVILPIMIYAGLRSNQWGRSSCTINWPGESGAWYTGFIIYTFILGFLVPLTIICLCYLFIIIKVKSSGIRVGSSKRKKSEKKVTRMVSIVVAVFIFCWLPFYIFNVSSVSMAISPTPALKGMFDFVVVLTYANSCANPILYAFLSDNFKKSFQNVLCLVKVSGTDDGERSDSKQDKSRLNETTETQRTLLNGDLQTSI

CC(C)[C@@H]1NC(=O)[C@H](CCCCN)NC(=O)[C@@H](Cc2c[nH]c3ccccc23)NC(=O)[C@H](Cc2ccc(O)cc2)NC(=O)[C@@H](NC(=O)[C@H](N)Cc2ccc3ccccc3c2)CSSC[C@@H](C(=O)N[C@H](C(N)=O)[C@@H](C)O)NC1=O [lanreotide]
affinity/binding to somatostatin receptor subtype 2 (SSTR2) [1]: selective high affinity

C[C@@H](O)[C@@H]1NC(=O)[C@H](CCCCN)NC(=O)[C@@H](Cc2c[nH]c3ccccc23)NC(=O)[C@H](Cc2ccccc2)NC(=O)[C@@H](NC(=O)[C@H](N)Cc2ccccc2)CSSC[C@@H](C(=O)N[C@H](CO)[C@@H](C)O)NC1=O [octreotide]
affinity/binding to somatostatin receptor subtype 2 (SSTR2) [1]: selective high affinity
affinity/binding to somatostatin receptor subtype 2 (SSTR2) ([1]; listed as Sandostatin®): binds mainly to SSTR2
binding to SSTR3 [2]: to some extent
